Results reported in patent US8778966B2, “Quinolinone derivatives as PARP and tank inhibitors” (Janssen Pharmaceutica, NV, priority 2007, dated 2014).

Assays:
tubulin = assay: Tubulin polymerization assay; assay type: biochemical; set-up: key: a compound showing 0 to 50% inhibition at 20 μM is reported as score 1; Score 2 compounds are defined as compound showing more than 50% inhibition at 20 μM and less than 50% inhibition at 5 μM; a compound showing more than 50% inhibition at 5 μM is reported as score 3; conditions: tested at 20 μM and 5 μM
Experimental: The tubulin polymerization assay is an adaptation of an assay originally described by Bonne, D. et al. (J. Biol. Chem., 1985, 260:2819-25). The assay kit was purchased from Cytoskeleton, Inc. (catalogue number BK011) and the assay was performed as described by the supplier with the following modifications. The assay was run in a 384-well black Proxiplate (Perkin Elmer) and volumes were adapted accordingly. The reactions were carried out in a final volume of 10 μl. Compounds were added to 25 μl of the reaction mix in 96-well PP plates (Corning) on ice and 10 μl of this mixture was dispensed into duplicates of the 384-well Proxiplates pre-warmed to 37° C. in a Fluoroskan Ascent plate reader (Thermo Scientific). Fluorescence measurements were taken every minute for one hour. The maximum slope of each well was determined (linear regression through 4 consecutive points) and polymerization was calculated as a percentage of polymerization observed in the absence of compound. Compounds were first measured at a concentration of 20 μM and then at 5 μM for those showing more than 50% inhibition at 20 μM as compared to the polymerization observed in the absence of compound. Results are reported in Table F-2 as scores defined as: a compound showing 0 to 50% inhibition at 20 μM is reported as score 1; a compound showing more than 50% inhibition at 5 μM is reported as score 3.

HCT116 cells = assay: Mitotic arrest assay on HCT116 cells (phospho-histone H3 Ser10); assay type: cell-based, human; conditions: Homo sapiens, HCT-116, HCT116 cells; lowest active dose; read-out: Mitotic arrest HCT116 LAD (converted)
Procedure, shortened: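 Seeded overnight, then compound-treated 6 h at 37 °C (≤0.1% DMSO); fixed, stained with Alexa Fluor 488 anti-phospho-H3 (Ser10) plus Hoechst 33342, imaged on InCell Analyzer 1000. Blank-subtracted signal divided by SD (sigma), triplicate; value is lowest dose giving sigma >5 (LAD).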

Row | Structure (SMILES) | tubulin polymerisation score (tubulin) | minimal effective concentration (HCT116 cells) [µM]
1 | CCc1cc2ccc(C(C)(C#N)Cc3cccc(N4CCCC4)n3)cc2[nH]c1=O (centres unmarked) [Compound 226] | 2 | 
2 | CCc1cc2ccc(C(C#N)(CC)Cc3nc(C#N)cc(OC)n3)cc2[nH]c1=O (centres unmarked) [Compound 316] | 2 | 
3 | CCc1cc2ccc(C(C)(C#N)Cc3ccnc(C#N)c3)cc2[nH]c1=O (centres unmarked) [Compound 324] | 1 (a compound showing 0 to 50% inhibition at 20 μM is reported as score 1) | 
4 | CCc1cc2ccc(C(C#N)(CC)Cc3cccc(OC)c3)cc2[nH]c1=O (centres unmarked) [Compound 287] | 2 | 
5 | CCc1cc2ccc(C(C)(C#N)Cc3cccc(F)n3)cc2[nH]c1=O (centres unmarked) [Compound 331] | 2 | 
6 | CCc1cc2ccc(C(C)(C#N)Cc3cccc(-c4ccccc4)c3)cc2[nH]c1=O (centres unmarked) [Compound 18] |  | 0.316
7 | CCOc1cc(C#N)nc(CC(C)(C#N)c2ccc3cc(CC)c(=O)[nH]c3c2)n1 (centres unmarked) [Compound 315] | 2 | 
8 | CCc1cc2ccc(C(C)(C#N)Cc3cccc(N(C)C)c3)cc2[nH]c1=O (centres unmarked) [Compound 20] |  | 0.1
9 | CCc1cc2ccc(C(C)(C#N)Cc3cc(F)cc(C#N)c3)cc2[nH]c1=O (centres unmarked) [Compound 266] | 3 (a compound showing more than 50% inhibition at 5 μM is reported as score 3) | 
10 | CCc1cc2ccc(C(C)(C#N)Cc3cc(C)nc(C#N)c3)cc2[nH]c1=O (centres unmarked) [Compound 328] | 2 | 
11 | CCc1cc2ccc(C(C)(C#N)Cc3cc(F)cc(F)c3)cc2[nH]c1=O (centres unmarked) [Compound 402] | 1 (a compound showing 0 to 50% inhibition at 20 μM is reported as score 1) | 
12 | COc1cc2ccc(C(C)(C#N)Cc3cccc(C#N)n3)cc2[nH]c1=O (centres unmarked) [Compound 218] | 2 | 
13 | CCc1cc2ccc(C(C)(C#N)CN3CCN(c4ncc(Br)cn4)CC3)cc2[nH]c1=O (centres unmarked) [Compound 374] | 2 | 
14 | CCc1cc2ccc(C(C)(C#N)CN3CCc4ccccc4C3)cc2[nH]c1=O (centres unmarked) [Compound 376] | 1 (a compound showing 0 to 50% inhibition at 20 μM is reported as score 1) | 
15 | CCc1cc2ccc(C(C)(C#N)Cc3ccc(Cl)nc3OC)cc2[nH]c1=O (centres unmarked) [Compound 225] | 2 | 
16 | CCc1cc2ccc(C(C)(C#N)Cc3ccc(C(F)(F)F)nc3C)cc2[nH]c1=O (centres unmarked) [Compound 340] | 1 (a compound showing 0 to 50% inhibition at 20 μM is reported as score 1) | 
17 | CCC(=O)c1cccc(CC(C)(C#N)c2ccc3cc(C)c(=O)[nH]c3c2)c1 (centres unmarked) [Compound 173] | 3 (a compound showing more than 50% inhibition at 5 μM is reported as score 3) | 
18 | CCc1cc2ccc(C(C)(C#N)Cc3nc(C)cc(OC)n3)cc2[nH]c1=O (centres unmarked) [Compound 371] | 1 (a compound showing 0 to 50% inhibition at 20 μM is reported as score 1) | 
19 | Cc1cc2ccc(C(C)(C#N)C3CCc4ccc(Br)cc43)cc2[nH]c1=O (centres unmarked) [Compound 249] | 2 | 

Row | Structure (SMILES) | tubulin polymerisation score (tubulin) | minimal effective concentration (HCT116 cells) [µM]
20 | CCc1cc2ccc(C(C)(C#N)Cc3cccc(O)c3)cc2[nH]c1=O (centres unmarked) [Compound 22] |  | 3.16
21 | CCc1cc2ccc(C(C#N)(CC)Cc3cccc(C#N)c3)cc2[nH]c1=O (centres unmarked) [Compound 265] | 2 | 
22 | CCc1cc2ccc([C@@](C)(C#N)[C@H]3CCOc4ccccc43)cc2[nH]c1=O (single isomer, unassigned) [Compound 395] | 2 | 
23 | CCc1cc2ccc(C(C)(C#N)Cc3cc(OC)cc(OC)n3)cc2[nH]c1=O (centres unmarked) [Compound 232] | 2 | 
24 | CCc1cc2ccc(C(C)(C#N)CC3Oc4ccccc4O3)cc2[nH]c1=O (centres unmarked) [Compound 398] | 2 | 
25 | CCc1cc2ccc(C(C)(C#N)Cc3cc(C#N)cc4c3OCC4)cc2[nH]c1=O (centres unmarked) [Compound 236] | 2 | 
26 | CCc1cc2ccc(C(C)(C#N)Cc3cccc(OCCOC)c3)cc2[nH]c1=O (centres unmarked) [Compound 24] |  | 1
27 | CCc1cc2ccc(C(C)(C#N)Cc3cccc(OCc4ccccc4)c3)cc2[nH]c1=O (centres unmarked) [Compound 23] |  | 1
28 | CCc1cc2ccc(C(C#N)(CC)Cc3nc(OC)cc(OC)n3)cc2[nH]c1=O (centres unmarked) [Compound 321] | 2 | 
29 | CCc1cc2ccc([C@](C)(C#N)C[C@H]3Cc4ccccc4O3)cc2[nH]c1=O [Compound 397] | 1 (a compound showing 0 to 50% inhibition at 20 μM is reported as score 1) | 
30 | CCc1cc2ccc([C@](C)(C#N)[C@H]3CCOc4ccccc43)cc2[nH]c1=O (single isomer, unassigned) [Compound 394] | 1 (a compound showing 0 to 50% inhibition at 20 μM is reported as score 1) | 
31 | CCc1cc2ccc(C(C)(C#N)CCOc3ncc(Br)cn3)cc2[nH]c1=O (centres unmarked) [Compound 349] | 2 | 
32 | CCc1cc2ccc(C(C)(C#N)Cc3cccc(I)c3)cc2[nH]c1=O (centres unmarked) [Compound 19] | 2 | 0.1
33 | CCc1cc2ccc([C@@](C)(C#N)CN(C)Cc3ccc(C#N)cc3)cc2[nH]c1=O (single isomer, unassigned) [Compound 253] | 2 | 
34 | CCc1cc2ccc(C(C)(C#N)Cc3cccc(N4CCOCC4)c3)cc2[nH]c1=O (centres unmarked) [Compound 21] |  | 0.316
35 | CCc1cc2ccc([C@](C)(C#N)Cc3cc(F)cc(F)c3)cc2[nH]c1=O [Compound 333] | 1 (a compound showing 0 to 50% inhibition at 20 μM is reported as score 1) | 
36 | CCc1cc2ccc(C(C#N)(CC)Cc3cccc(C#N)n3)cc2[nH]c1=O (centres unmarked) [Compound 342] | 3 (a compound showing more than 50% inhibition at 5 μM is reported as score 3) | 
37 | CCc1cc2ccc(C(C)(C#N)Cc3cccc(-c4cnn(C)c4)c3)cc2[nH]c1=O (centres unmarked) [Compound 17] |  | 1
